Holding throughout (type): cell-based
The target in experiment [1] is Tumor necrosis factor (Homo sapiens) (UniProt P01375). Briefly: Induction of degradation of halo-tagged human TNFalpha expressed in HEK293 cells at 1 uM after 6 hrs by Western blot analysis. (Immunoblotting shows a protein as a band on a membrane.)
For experiment [2], the system named is HEK293. Description: Increase in level of bacterial haloalkane dehalogenase expressed in HEK293 cells at 0.1 to 0.3 uM after 6 hrs by Western blot analysis. The conditions noted are these: Bacteria.
The target in experiment [3] is Cell division control protein 42 homolog (Homo sapiens) (UniProt P60953). Briefly: Induction of degradation of halo-tagged human Cdc42 expressed in HEK293 cells at 1 uM after 6 hrs by Western blot analysis.
Experiment [4] has as its system HEK293. Description: Induction of degradation of bacterial haloalkane dehalogenase expressed in HEK293 cells at 1 uM after 6 hrs by Western blot analysis. The conditions noted are these: Bacteria.
For experiment [5], the target named is Tumor necrosis factor (Homo sapiens) (UniProt P01375). Description: Increase in level of halo-tagged human TNFalpha expressed in HEK293 cells at 0.1 to 0.3 uM after 6 hrs by Western blot analysis.
Experiment [6] deals with Cyclic AMP-responsive element-binding protein 1 (Homo sapiens) (UniProt P16220). Description: Induction of degradation of halo-tagged CREB1 (unknown origin) expressed in HEK293 cells at 10 uM by Western blot analysis.
Experiment [7] concerns the target Transcription factor Jun (Homo sapiens) (UniProt P05412). Description: Induction of degradation of halo-tagged c-jun (unknown origin) expressed in HEK293 cells assessed as time required to reduce level of halo-tagged c-jun at 10 uM by Western blot analysis.
Experiment [8] concerns the target Tumor necrosis factor (Homo sapiens) (UniProt P01375). Description: Induction of degradation of halo-tagged human TNFalpha expressed in HEK293 cells after 6 hrs by Western blot analysis.
For experiment [9] the target is unchanged. Description: Induction of degradation of halo-tagged human TNFalpha expressed in HEK293 cells at 1 uM after 6 hrs by Western blot analysis in presence of proteasome inhibitor MG132.
For experiment [10] the target is unchanged. Description: Induction of degradation of halo-tagged human TNFalpha expressed in HEK293 cells at 30 uM after 6 hrs by Western blot analysis.
The target is the same in experiment [11]. Description: Induction of degradation of halo-tagged TNFalpha (unknown origin) expressed in HEK293 cells at 10 uM after 24 hrs by Western blot analysis.

SMILES strings stand for the structures. Active and inactive are the calls of the source. The rule behind the calls is not given here. Where a SMILES comes first, the peptide text is derived from it. [ ]: non-standard residue; d: D form. The star is where a group is joined. Dip = N[C@H](C(=O)O)C(c1ccccc1)c1ccccc1; X2 = ClCCCCCCOCCOCCOCCOCCOCCN*; Chg = N[C@H](C(=O)O)C1CCCCC1; NMeA = CN[C@@H](C)C(=O)O; X1 = ClCCCCCCOCCOCCOCCN*

Sequence of Cyclic AMP-responsive element-binding protein 1 (Homo sapiens) (P16220 whole entry): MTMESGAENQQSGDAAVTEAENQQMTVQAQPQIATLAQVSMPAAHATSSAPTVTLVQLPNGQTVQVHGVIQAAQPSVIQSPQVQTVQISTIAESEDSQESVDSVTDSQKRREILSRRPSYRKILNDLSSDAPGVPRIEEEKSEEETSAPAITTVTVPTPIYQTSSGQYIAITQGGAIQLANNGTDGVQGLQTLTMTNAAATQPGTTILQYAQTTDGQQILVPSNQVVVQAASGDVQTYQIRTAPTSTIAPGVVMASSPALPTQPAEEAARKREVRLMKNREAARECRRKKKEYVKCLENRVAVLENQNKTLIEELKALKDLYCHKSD
Sequence of Transcription factor Jun (Homo sapiens) (P05412 whole entry): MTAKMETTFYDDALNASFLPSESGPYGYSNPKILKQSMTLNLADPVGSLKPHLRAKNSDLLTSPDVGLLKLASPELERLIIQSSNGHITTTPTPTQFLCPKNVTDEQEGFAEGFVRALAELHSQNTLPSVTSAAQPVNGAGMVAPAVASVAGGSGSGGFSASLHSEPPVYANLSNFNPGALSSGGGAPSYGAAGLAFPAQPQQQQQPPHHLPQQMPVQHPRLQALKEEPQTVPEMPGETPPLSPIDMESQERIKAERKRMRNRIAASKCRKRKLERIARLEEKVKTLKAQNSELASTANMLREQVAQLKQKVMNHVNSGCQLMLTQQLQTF
Sequence of Tumor necrosis factor (Homo sapiens) (P01375 whole entry): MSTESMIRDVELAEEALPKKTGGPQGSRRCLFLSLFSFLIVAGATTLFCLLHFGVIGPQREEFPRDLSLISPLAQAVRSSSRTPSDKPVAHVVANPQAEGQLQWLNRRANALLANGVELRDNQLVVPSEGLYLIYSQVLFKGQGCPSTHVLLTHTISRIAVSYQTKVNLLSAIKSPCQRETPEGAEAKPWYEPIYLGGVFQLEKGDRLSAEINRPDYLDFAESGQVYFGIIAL
Sequence of Cell division control protein 42 homolog (Homo sapiens) (P60953 whole entry, looked up): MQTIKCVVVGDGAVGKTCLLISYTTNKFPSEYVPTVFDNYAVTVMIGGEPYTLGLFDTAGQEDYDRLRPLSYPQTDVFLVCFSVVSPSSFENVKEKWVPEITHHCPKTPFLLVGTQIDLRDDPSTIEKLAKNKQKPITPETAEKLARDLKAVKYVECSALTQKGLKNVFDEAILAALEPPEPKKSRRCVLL

For `CN[C@@H](C)C(=O)NC(C(=O)N1CCC[C@H]1C(=O)N[C@H](C(=O)OC)C(c1ccccc1)c1ccccc1)C1CCCCC1` (single isomer, unassigned), in experiment [1], the outcome was inactive.
Turning to `CN[C@@H](C)C(=O)N[C@H](C(=O)N1CCC[C@H]1C(=O)N[C@H](C(=O)NCCOCCOCCOCCOCCOCCCCCCCl)C(c1ccccc1)c1ccccc1)C1CCCCC1` (H-[NMeA][Chg]P[Dip]-X2), the outcome in experiment [2], in experiment [3], in experiment [4] and in [5] was Active. Besides, the outcome in [1] was inactive.
As to `CC(C)C[C@H](NC(=O)[C@@H](O)[C@H](N)Cc1ccccc1)C(=O)NCCOCCOCCOCCOCCOCCCCCCCl`, in experiment [6], the outcome was Active. Moreover, in experiment [7], the TIME amounted to 21 h.
`NCCOCCOCCOCCCCCCCl`: in experiment [1], the result was inactive.
Take `CC(C)C[C@H](NC(=O)[C@@H](O)[C@H](N)Cc1ccccc1)C(=O)NCCOCCOCCOCCOCCOCCOCCCCCCCl`: the outcome in [6] was Active. Moreover, the TIME in experiment [7] came to 21 h.
In the case of `CN[C@@H](C)C(=O)N[C@H](C(=O)N1CCC[C@H]1C(=O)N[C@H](C(=O)NCCOCCOCCOCCCCCCCl)C(c1ccccc1)c1ccccc1)C1CCCCC1` (H-[NMeA][Chg]P[Dip]-X1), the outcome in experiment [2], in [4] and in experiment [5] was Active. In experiment [8], the Activity entry is “Dose-dependent effect”. Moreover, the outcome in experiment [9] and in experiment [3] was inactive.
For the molecule `CC(C)C[C@H](NC(=O)[C@@H](O)[C@H](N)Cc1ccccc1)C(=O)NCCOCCOCCOCCCCCCCl`, the outcome in experiment [6] was Active. The TIME in experiment [7] turned out to be 21 h.
As to `CC(C)C[C@H](NC(=O)[C@@H](O)[C@H](N)Cc1ccccc1)C(=O)NCCOCCOCCOCCOCCCCCCCl`, in experiment [10], the result was inactive. Besides, the result in experiment [6] and in experiment [11] was Active. In addition, the TIME in experiment [7] amounted to 21 h.

For the origin of these results see ChEMBL document CHEMBL3813609, “Efficient protein knockdown of HaloTag-fused proteins using hybrid molecules consisting of IAP antagonist and HaloTag ligand” (Bioorg Med Chem, 2016).
